Source: ChEMBL document CHEMBL5291721, “A preclinical secondary pharmacology resource illuminates target-adverse drug reaction associations of marketed drugs” (Nat Commun, 2023)

Experiments:
Adenosine receptor A1 = target: T1, Adenosine receptor A1 (Homo sapiens, UniProt P30542)
T1 sequence (P30542 whole entry): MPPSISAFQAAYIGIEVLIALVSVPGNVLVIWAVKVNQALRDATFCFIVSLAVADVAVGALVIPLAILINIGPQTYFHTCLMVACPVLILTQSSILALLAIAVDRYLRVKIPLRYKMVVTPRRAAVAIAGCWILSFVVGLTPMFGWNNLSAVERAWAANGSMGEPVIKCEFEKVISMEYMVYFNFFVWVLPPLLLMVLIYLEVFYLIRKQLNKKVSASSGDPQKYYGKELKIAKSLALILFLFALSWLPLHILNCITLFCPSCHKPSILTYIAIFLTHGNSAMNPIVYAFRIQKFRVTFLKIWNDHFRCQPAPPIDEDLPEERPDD

Adenosine receptor A3 = target: T2, Adenosine receptor A3 (Homo sapiens, UniProt P0DMS8)
T2 sequence (P0DMS8 whole entry): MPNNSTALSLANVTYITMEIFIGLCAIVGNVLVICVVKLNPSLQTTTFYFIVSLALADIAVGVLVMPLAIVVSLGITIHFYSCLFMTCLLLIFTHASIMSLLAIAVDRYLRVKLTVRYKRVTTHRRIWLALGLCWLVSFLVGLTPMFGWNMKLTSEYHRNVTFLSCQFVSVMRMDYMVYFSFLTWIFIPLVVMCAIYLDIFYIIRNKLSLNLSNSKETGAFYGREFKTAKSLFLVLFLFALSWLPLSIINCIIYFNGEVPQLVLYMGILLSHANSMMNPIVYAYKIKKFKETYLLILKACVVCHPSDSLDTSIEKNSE

[1] = target: T3, Alpha-2A adrenergic receptor (Homo sapiens, UniProt P08913); type: functional, cell-based
T3 sequence (P08913 whole entry): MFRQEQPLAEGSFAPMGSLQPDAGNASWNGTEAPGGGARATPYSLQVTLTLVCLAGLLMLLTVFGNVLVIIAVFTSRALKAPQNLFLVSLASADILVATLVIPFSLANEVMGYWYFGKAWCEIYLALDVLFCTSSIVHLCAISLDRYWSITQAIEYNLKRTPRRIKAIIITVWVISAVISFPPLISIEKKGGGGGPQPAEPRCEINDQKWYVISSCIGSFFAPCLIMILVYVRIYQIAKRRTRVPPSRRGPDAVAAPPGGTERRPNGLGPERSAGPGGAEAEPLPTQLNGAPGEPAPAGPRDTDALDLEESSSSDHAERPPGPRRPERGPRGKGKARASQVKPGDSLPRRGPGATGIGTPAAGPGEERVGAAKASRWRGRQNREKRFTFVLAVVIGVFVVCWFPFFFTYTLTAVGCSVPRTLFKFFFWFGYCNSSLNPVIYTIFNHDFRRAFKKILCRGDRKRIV

[2] = target: Beta-2 adrenergic receptor (Homo sapiens, UniProt P07550); type: functional, cell-based
B2 bradykinin receptor = target: T4, B2 bradykinin receptor (Homo sapiens, UniProt P30411)
T4 sequence (P30411 whole entry): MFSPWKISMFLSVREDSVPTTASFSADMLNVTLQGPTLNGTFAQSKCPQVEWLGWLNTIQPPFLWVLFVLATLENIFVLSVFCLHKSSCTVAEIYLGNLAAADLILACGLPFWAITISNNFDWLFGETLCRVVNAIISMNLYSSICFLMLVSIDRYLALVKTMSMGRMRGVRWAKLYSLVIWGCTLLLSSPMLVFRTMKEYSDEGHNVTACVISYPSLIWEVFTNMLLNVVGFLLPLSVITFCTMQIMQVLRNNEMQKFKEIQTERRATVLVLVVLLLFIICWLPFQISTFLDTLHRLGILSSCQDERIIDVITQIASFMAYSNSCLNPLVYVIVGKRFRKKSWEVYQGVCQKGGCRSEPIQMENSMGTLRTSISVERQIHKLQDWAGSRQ

[3] = target: Growth hormone secretagogue receptor type 1 (Homo sapiens, UniProt Q92847)
Histamine H2 receptor = Histamine H2 receptor (Homo sapiens, UniProt P25021); type: functional, cell-based
[4] = target: T5, 5-hydroxytryptamine receptor 1A (Homo sapiens, UniProt P08908); type: functional, cell-based
T5 sequence (P08908 whole entry): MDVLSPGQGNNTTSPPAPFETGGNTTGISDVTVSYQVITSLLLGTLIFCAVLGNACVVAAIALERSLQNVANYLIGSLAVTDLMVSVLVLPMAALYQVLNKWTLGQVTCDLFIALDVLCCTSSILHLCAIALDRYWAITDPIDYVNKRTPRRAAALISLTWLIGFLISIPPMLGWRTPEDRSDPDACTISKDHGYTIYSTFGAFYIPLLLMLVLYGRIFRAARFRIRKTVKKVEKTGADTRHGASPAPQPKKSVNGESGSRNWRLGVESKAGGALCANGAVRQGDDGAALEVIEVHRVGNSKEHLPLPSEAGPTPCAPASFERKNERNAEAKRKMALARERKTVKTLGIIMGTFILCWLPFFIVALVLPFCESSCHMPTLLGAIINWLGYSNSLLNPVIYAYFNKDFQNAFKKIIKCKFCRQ

[5] = target: T6, Prostaglandin G/H synthase 1 (Rattus norvegicus, UniProt Q63921); type: functional
T6 sequence (Q63921 whole entry): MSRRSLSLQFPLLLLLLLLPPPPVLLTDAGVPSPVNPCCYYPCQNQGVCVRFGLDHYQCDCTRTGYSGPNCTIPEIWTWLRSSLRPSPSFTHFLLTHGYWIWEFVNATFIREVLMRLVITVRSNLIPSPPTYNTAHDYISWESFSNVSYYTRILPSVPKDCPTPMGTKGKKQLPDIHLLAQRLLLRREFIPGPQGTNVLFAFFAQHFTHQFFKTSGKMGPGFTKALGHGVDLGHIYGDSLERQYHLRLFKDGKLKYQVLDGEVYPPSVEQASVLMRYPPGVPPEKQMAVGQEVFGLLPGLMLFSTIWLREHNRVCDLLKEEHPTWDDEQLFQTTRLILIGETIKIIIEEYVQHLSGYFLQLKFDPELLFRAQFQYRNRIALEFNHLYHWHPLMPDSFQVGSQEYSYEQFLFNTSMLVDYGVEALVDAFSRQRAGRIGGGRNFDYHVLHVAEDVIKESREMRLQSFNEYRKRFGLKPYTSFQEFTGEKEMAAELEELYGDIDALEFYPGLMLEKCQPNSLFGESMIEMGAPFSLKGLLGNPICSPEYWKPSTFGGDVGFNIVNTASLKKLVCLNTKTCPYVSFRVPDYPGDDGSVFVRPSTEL

[6] = target: cGMP-inhibited 3',5'-cyclic phosphodiesterase 3A (Homo sapiens, UniProt Q14432); type: functional

Measured: AC50
Further: assay procedure not described here.

Sequence of Histamine H2 receptor (P25021 whole entry): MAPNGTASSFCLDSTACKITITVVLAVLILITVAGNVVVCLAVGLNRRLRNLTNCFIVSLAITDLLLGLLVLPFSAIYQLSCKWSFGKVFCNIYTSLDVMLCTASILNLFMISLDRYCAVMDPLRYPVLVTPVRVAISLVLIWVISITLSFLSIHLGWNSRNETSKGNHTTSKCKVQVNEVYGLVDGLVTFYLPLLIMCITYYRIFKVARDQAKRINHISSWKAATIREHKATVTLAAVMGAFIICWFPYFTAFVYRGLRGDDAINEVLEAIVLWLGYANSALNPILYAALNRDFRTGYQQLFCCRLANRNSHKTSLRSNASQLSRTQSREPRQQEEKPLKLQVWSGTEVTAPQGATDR
Sequence of Beta-2 adrenergic receptor (P07550 whole entry): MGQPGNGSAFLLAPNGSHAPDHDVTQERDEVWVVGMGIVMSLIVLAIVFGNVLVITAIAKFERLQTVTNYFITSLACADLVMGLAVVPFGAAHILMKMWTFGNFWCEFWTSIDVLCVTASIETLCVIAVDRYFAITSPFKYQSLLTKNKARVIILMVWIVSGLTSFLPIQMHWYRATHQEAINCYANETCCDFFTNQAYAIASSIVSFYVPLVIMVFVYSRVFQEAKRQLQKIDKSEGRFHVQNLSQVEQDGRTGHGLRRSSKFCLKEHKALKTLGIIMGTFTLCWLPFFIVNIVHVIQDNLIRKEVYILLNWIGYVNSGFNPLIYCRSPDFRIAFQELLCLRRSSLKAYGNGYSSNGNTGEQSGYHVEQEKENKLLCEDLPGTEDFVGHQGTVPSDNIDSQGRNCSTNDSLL
Sequence of cGMP-inhibited 3',5'-cyclic phosphodiesterase 3A (Q14432 whole entry): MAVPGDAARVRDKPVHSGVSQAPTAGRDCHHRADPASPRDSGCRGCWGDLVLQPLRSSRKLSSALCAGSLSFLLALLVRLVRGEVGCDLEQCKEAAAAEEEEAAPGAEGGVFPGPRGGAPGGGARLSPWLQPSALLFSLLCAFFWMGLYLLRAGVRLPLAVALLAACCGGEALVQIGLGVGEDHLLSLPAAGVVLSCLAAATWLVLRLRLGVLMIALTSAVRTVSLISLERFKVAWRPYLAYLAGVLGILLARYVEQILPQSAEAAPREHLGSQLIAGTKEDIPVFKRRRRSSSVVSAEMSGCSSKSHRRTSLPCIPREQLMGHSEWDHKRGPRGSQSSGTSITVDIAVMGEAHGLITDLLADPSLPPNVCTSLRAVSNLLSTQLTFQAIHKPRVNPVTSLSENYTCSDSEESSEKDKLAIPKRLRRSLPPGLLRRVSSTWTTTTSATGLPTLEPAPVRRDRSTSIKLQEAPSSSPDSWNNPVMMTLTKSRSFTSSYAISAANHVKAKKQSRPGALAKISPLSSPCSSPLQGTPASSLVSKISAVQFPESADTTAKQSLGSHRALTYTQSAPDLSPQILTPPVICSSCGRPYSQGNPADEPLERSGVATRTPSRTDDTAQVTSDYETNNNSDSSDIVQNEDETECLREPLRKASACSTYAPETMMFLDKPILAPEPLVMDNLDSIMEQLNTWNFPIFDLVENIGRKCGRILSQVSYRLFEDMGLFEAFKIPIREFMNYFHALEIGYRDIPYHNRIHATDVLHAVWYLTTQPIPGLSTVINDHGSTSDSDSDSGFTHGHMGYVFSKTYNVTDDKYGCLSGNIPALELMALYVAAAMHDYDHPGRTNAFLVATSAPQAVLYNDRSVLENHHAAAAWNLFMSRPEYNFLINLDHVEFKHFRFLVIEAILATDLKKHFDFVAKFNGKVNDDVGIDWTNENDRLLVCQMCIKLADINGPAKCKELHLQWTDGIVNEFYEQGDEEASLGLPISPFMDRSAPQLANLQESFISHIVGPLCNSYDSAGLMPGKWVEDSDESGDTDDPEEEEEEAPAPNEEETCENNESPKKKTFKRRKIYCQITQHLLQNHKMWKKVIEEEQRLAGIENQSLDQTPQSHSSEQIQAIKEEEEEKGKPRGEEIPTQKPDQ
Sequence of Growth hormone secretagogue receptor type 1 (Q92847 whole entry): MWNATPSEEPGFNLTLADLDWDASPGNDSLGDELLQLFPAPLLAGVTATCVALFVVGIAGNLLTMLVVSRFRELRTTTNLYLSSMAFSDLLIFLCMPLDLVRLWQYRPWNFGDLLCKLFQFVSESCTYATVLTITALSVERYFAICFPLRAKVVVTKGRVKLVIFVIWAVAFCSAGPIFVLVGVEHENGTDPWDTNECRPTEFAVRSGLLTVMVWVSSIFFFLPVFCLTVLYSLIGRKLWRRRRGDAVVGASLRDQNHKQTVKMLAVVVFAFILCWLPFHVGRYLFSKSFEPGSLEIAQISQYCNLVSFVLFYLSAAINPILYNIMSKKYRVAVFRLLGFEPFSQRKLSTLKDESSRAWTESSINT

Nc1ncnc2c1ncn2[C@@H]1O[C@H](COP(=O)(O)O)[C@@H](O)[C@H]1O [ADENOSINE PHOSPHATE]
9.5 µM: [2]
16 µM: [6]
> 30 µM: all other assays above

CCCC(CCC)C(=O)O[C@H]1C[C@H]2CC[C@@H](C1)[N+]2(C)C [ANISOTROPINE]
> 30 µM: all assays above

CCCCCOC(=O)Nc1nc(=O)n([C@@H]2O[C@H](C)[C@@H](O)[C@H]2O)cc1F [CAPECITABINE]
> 30 µM: all assays above

[H]/N=C(/N)c1ccc(NCc2nc3cc(C(=O)N(CCC(=O)O)c4ccccn4)ccc3n2C)cc1 [DABIGATRAN]
> 30 µM: all assays above

O=C1CN=C(c2ccccc2)c2cc(Cl)ccc2N1CC(F)(F)F [HALAZEPAM]
26 µM: Adenosine receptor A3
> 30 µM: all other assays above

C1=Cc2cccc(OCC3CNCCO3)c2C1 (stereo not given) [INDELOXAZINE]
> 30 µM: all assays above

CC/C=C\C/C=C\C/C=C\CCCCCCCC(=O)O [LINOLENIC ACID]
6.3 µM: [5]
> 30 µM: all other assays above

O=C(O)Cc1cn(-c2ccccc2)nc1-c1ccc(Cl)cc1 [LONAZOLAC]
19 µM: [5]
> 30 µM: all other assays above
